Source: patent publication US11697646B2, “Triazole N-linked carbamoyl cyclohexyl acids as LPA antagonists” (BRISTOL-MYERS SQUIBB COMPANY, priority 2017, dated 2023)

Biological target: T1, human LPA1 (Homo sapiens, UniProt Q92633)
T1 construct: expressed in transfected cells; host or cells: Chinese hamster ovary (CHO) cells
Test: LPA1 functional antagonist assay (calcium flux)
Format: cell-based
Settings: CHO cells overexpressing human LPA1; calcium flux induced by 10 nM LPA; read-out: hLPA1 IC50
Method: The effectiveness of compounds of the present invention as LPA1 inhibitors can be determined in an LPA1 functional antagonist assay as follows:
The cells were then equilibrated to room temperature for 30 minutes before the assay. […] IC50 values were determined by fitting data to a 4-parameter logistic equation (GraphPad Prism, San Diego Calif.).

T1 sequence (Q92633 whole entry): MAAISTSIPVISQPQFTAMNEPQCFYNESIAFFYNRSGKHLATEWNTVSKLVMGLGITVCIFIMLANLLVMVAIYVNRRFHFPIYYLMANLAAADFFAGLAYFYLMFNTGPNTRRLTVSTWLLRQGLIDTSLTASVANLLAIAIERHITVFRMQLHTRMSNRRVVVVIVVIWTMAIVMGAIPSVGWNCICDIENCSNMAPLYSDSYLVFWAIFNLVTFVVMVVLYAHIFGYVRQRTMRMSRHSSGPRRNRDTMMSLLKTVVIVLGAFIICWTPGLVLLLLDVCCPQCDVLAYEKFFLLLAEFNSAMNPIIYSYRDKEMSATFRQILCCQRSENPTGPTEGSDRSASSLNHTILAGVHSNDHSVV

Compound | IC50
CCCCOC(=O)NCc1c(-c2ccc(O[C@H]3CCC[C@H](C(=O)O)C3)c(C)n2)nnn1C [Example 3, (1S,3S)-3-((6-(5-(((butoxycarbonyl)amino)methyl)-1-methyl-1H-1,2,3-triazol-4-yl)-2-methylpyridin-3-yl)oxy)cyclohexane-1-carboxylic acid] | 14 nM
CCCCOC(=O)NCc1c(-c2ccc(O[C@H]3CCC[C@H](C(=O)O)C3)cn2)nnn1C [Example 5, (1S,3S)-3-((6-(5-(((butoxycarbonyl)amino)methyl)-1-methyl-1H-1,2,3-triazol-4-yl)pyridin-3-yl)oxy)cyclohexane-1-carboxylic acid] | 96 nM
Cn1nnc(-c2ccc(O[C@H]3CCC[C@H](C(=O)O)C3)cn2)c1CNC(=O)OC1CCCC1 [Example 6, (1S,3S)-3-((6-(5-((((cyclopentyloxy)carbonyl)amino)methyl)-1-methyl-1H-1,2,3-triazol-4-yl)pyridin-3-yl)oxy)cyclohexane-1-carboxylic acid] | 84 nM
Cc1nc(-c2nnn(C)c2CNC(=O)OCC2CC2)ccc1O[C@H]1CCC[C@H](C(=O)O)C1 [Example 7, (1S,3S)-3-((6-(5-((((cyclopropylmethoxy)carbonyl)amino)methyl)-1-methyl-1H-1,2,3-triazol-4-yl)-2-methylpyridin-3-yl)oxy)cyclohexane-1-carboxylic acid] | 47 nM
Cc1nc(-c2nnn(C)c2CNC(=O)OCc2cc(F)cc(F)c2)ccc1O[C@H]1CCC[C@H](C(=O)O)C1 [Example 8, (1S,3S)-3-((6-(5-(((((3,5-difluorobenzyl)oxy)carbonyl)amino)methyl)-1-methyl-1H-1,2,3-triazol-4-yl)-2-methylpyridin-3-yl)oxy)cyclohexane-1-carboxylic acid] | 5 nM
Cn1nnc(-c2ccc(O[C@H]3CCC[C@H](C(=O)O)C3)cn2)c1CNC(=O)OCCc1ccccc1 [Example 9, (1S,3S)-3-((6-(1-methyl-5-(((phenethoxycarbonyl)amino)methyl)-1H-1,2,3-triazol-4-yl)pyridin-3-yl)oxy)cyclohexane-1-carboxylic acid] | 672 nM
C[C@@H](OC(=O)NCc1c(-c2ccc(O[C@H]3CCC[C@H](C(=O)O)C3)cn2)nnn1C)c1ccccc1 [Example 10, (1S,3S)-3-((6-(1-methyl-5-(((((R)-1-phenylethoxy)carbonyl)amino)methyl)-1H-1,2,3-triazol-4-yl)pyridin-3-yl)oxy)cyclohexane-1-carboxylic acid] | 104 nM
Cc1nc(-c2nnn(C)c2CNC(=O)OCc2cccc(F)c2)ccc1O[C@H]1CCC[C@H](C(=O)O)C1 [Example 11, (1S,3S)-3-((6-(5-(((((3-fluorobenzyl)oxy)carbonyl)amino)methyl)-1-methyl-1H-1,2,3-triazol-4-yl)-2-methylpyridin-3-yl)oxy)cyclohexane-1-carboxylic acid] | 6 nM
Cn1nnc(-c2ccc(O[C@H]3CCC[C@H](C(=O)O)C3)cn2)c1CNC(=O)OCc1cccc(F)c1 [Example 12, (1S,3S)-3-((6-(5-(((((3-fluorobenzyl)oxy)carbonyl)amino)methyl)-1-methyl-1H-1,2,3-triazol-4-yl)pyridin-3-yl)oxy)cyclohexane-1-carboxylic acid] | 23 nM
CCCCCCOC(=O)NCc1c(-c2ccc(O[C@H]3CCC[C@H](C(=O)O)C3)cn2)nnn1C [Example 13, (1S,3S)-3-((6-(5-((((hexyloxy)carbonyl)amino)methyl)-1-methyl-1H-1,2,3-triazol-4-yl)pyridin-3-yl)oxy)cyclohexane-1-carboxylic acid] | 428 nM
CCCCOC(=O)N(C)Cc1c(-c2ccc(O[C@H]3CCC[C@H](C(=O)O)C3)cn2)nnn1C [Example 14, (1S,3S)-3-((6-(5-(((butoxycarbonyl)(methyl)amino)methyl)-1-methyl-1H-1,2,3-triazol-4-yl)pyridin-3-yl)oxy)cyclohexane-1-carboxylic acid] | 1020 nM
CCCCCOC(=O)N(C)Cc1c(-c2ccc(O[C@H]3CCC[C@H](C(=O)O)C3)cn2)nnn1C [Example 15, (1S,3S)-3-((6-(1-methyl-5-((methyl((pentyloxy)carbonyl)amino)methyl)-1H-1,2,3-triazol-4-yl)pyridin-3-yl)oxy)cyclohexane-1-carboxylic acid] | 130 nM
Cc1nc(-c2nnn(C)c2CNC(=O)OCCc2ccccc2)ccc1O[C@H]1CCC[C@H](C(=O)O)C1 [Example 16, (1S,3S)-3-((2-methyl-6-(1-methyl-5-(((phenethoxycarbonyl)amino)methyl)-1H-1,2,3-triazol-4-yl)pyridin-3-yl)oxy)cyclohexane-1-carboxylic acid] | 32 nM
Cc1nc(-c2nnn(C)c2CNC(=O)OCc2cc(F)ccc2F)ccc1O[C@H]1CCC[C@H](C(=O)O)C1 [Example 17, (1S,3S)-3-((6-(5-(((((2,5-difluorobenzyl)oxy)carbonyl)amino)methyl)-1-methyl-1H-1,2,3-triazol-4-yl)-2-methylpyridin-3-yl)oxy)cyclohexane-1-carboxylic acid] | 7 nM
Cc1nc(-c2nnn(C)c2CNC(=O)O[C@H](C)c2ccccc2)ccc1O[C@H]1CCC[C@H](C(=O)O)C1 [Example 18, (1S,3S)-3-((2-methyl-6-(1-methyl-5-(((((R)-1-phenylethoxy)carbonyl)amino)methyl)-1H-1,2,3-triazol-4-yl)pyridin-3-yl)oxy)cyclohexane-1-carboxylic acid] | 12 nM
Cc1cccc(COC(=O)NCc2c(-c3ccc(O[C@H]4CCC[C@H](C(=O)O)C4)c(C)n3)nnn2C)c1 [Example 19, (1S,3S)-3-((2-methyl-6-(1-methyl-5-(((((3-methylbenzyl)oxy)carbonyl)amino)methyl)-1H-1,2,3-triazol-4-yl)pyridin-3-yl)oxy)cyclohexane-1-carboxylic acid] | 4 nM
CCCCCCOC(=O)NCc1c(-c2ccc(O[C@H]3CCC[C@H](C(=O)O)C3)c(C)n2)nnn1C [Example 20, (1S,3S)-3-((6-(5-((((hexyloxy)carbonyl)amino)methyl)-1-methyl-1H-1,2,3-triazol-4-yl)-2-methyl-pyridin-3-yl)oxy)cyclohexane-1-carboxylic acid] | 3 nM
COCCOC(=O)NCc1c(-c2ccc(O[C@H]3CCC[C@H](C(=O)O)C3)c(C)n2)nnn1C [Example 21, (1S,3S)-3-((6-(5-((((2-methoxyethoxy)carbonyl)amino)methyl)-1-methyl-1H-1,2,3-triazol-4-yl)-2-methylpyridin-3-yl)oxy)cyclohexane-1-carboxylic acid] | 1620 nM
Cc1nc(-c2nnn(C)c2CNC(=O)OCC(C)(C)C)ccc1O[C@H]1CCC[C@H](C(=O)O)C1 [Example 22, (1S,3S)-3-((2-methyl-6-(1-methyl-5-((((neopentyloxy)carbonyl)amino)methyl)-1H-1,2,3-triazol-4-yl)pyridin-3-yl)oxy)cyclohexane-1-carboxylic acid] | 35 nM
CCCCCOC(=O)NCc1c(-c2ccc(O[C@H]3CCC[C@H](C(=O)O)C3)c(C)n2)nnn1C [Example 23] | 3 nM
CCCOC(=O)NCc1c(-c2ccc(O[C@H]3CCC[C@H](C(=O)O)C3)c(C)n2)nnn1C [Example 24, (1S,3S)-3-((2-methyl-6-(1-methyl-5-(((propoxycarbonyl)amino)methyl)-1H-1,2,3-triazol-4-yl)pyridin-3-yl)oxy)cyclohexane-1-carboxylic acid] | 160 nM
Cc1nc(-c2nnn(C)c2CNC(=O)OCC(C)C)ccc1O[C@H]1CCC[C@H](C(=O)O)C1 [Example 25, (1S,3S)-3-((6-(5-(((isobutoxycarbonyl)amino)methyl)-1-methyl-1H-1,2,3-triazol-4-yl)-2-methyl-pyridin-3-yl)oxy)cyclohexane-1-carboxylic acid] | 51 nM
Cn1nnc(-c2ccc(O[C@H]3CCC[C@H](C(=O)O)C3)cn2)c1CNC(=O)OCC(C)(C)C [Example 26, (1S,3S)-3-((6-(1-methyl-5-((((neopentyloxy)carbonyl)amino)methyl)-1H-1,2,3-triazol-4-yl)pyridin-3-yl)oxy)cyclohexane-1-carboxylic acid] | 44 nM
CCCCCOC(=O)NCc1c(-c2ccc(O[C@H]3CCC[C@H](C(=O)O)C3)cn2)nnn1C [Example 27, (1S,3S)-3-((6-(1-methyl-5-((((pentyloxy)carbonyl)amino)methyl)-1H-1,2,3-triazol-4-yl)pyridin-3-yl)oxy)cyclohexane-1-carboxylic acid] | 16 nM
Cc1nc(-c2nnn(C)c2CNC(=O)OC2CCCC2)ccc1O[C@H]1CCC[C@H](C(=O)O)C1 [Example 28] | 18 nM
CC(C)COC(=O)NCc1c(-c2ccc(O[C@H]3CCC[C@H](C(=O)O)C3)cn2)nnn1C [Example 29, (1S,3S)-3-((6-(5-(((isobutoxycarbonyl)amino)methyl)-1-methyl-1H-1,2,3-triazol-4-yl)pyridin-3-yl)oxy)cyclohexane-1-carboxylic acid] | 179 nM
Cc1nc(-c2nnn(C)c2CNC(=O)OC(C)(C)C)ccc1O[C@H]1CCC[C@H](C(=O)O)C1 [Example 30, (1S,3S)-3-((6-(5-(((tert-butoxycarbonyl)amino)methyl)-1-methyl-1H-1,2,3-triazol-4-yl)-2-methylpyridin-3-yl)oxy)cyclohexane-1-carboxylic acid] | 120 nM
Cc1nc(-c2nnn(C)c2CNC(=O)OCC2CCC2)ccc1O[C@H]1CCC[C@H](C(=O)O)C1 [Example 33, (1S,3S)-3-((6-(5-((((cyclobutylmethoxy)carbonyl)amino)methyl)-1-methyl-1H-1,2,3-triazol-4-yl)-2-methylpyridin-3-yl)oxy)cyclohexane-1-carboxylic acid] | 11 nM
Cc1nc(-c2nnn(C)c2CN(C)C(=O)OCc2ccccc2)ccc1O[C@H]1CCC[C@H](C(=O)O)C1 [Example 35, (1S,3S)-3-((6-(5-((((benzyloxy)carbonyl)(methyl)amino)methyl)-1-methyl-1H-1,2,3-triazol-4-yl)-2-methylpyridin-3-yl)oxy)cyclohexanecarboxylic acid] | 56 nM
